This is an account of results in patent US20170157155A1, “METHOD OF TREATMENT OF NASOPHARYNGEAL CANCER” (Millennium Pharmaceuticals, Inc., priority 2012, published 2017).

In data set [1] the test system is relapsed or refractory mantle cell lymphoma. To be noted: international multi-center Phase II study; cited from earlier work.
Another data set concerns nasopharyngeal cancer. The data set can be described thus: Clinical response of nasopharyngeal cancer patients given the compound of formula (III-A) IV twice weekly. Format: in vivo, human. Conditions: for clinical response: IV injection days 1, 4, 8 and 11 of a 21-day cycle. The method, then: (1) Tissue Microarray (obtained from US Biomax, Inc.) of primary nasopharyngeal cancer (n=35) (2) Tissue Microarray of metastatic nasopharyngeal cancer (obtained from US Biomax, Inc.) (n=15) (3) Tissue Microarray of other histologies of head and neck cancers (obtained from US Biomax, Inc.) (n=68) (4) Archival primary tumor biopsy samples of patients with head and neck squamous cell cancers (n=14). All samples were obtained under the appropriate informed consent. The patients were administered the compound of formula (III-A) on a twice-weekly schedule (days 1, 4, 8 and 11 of a 21-day cycle) as an IV injection. Of the primary tumor samples in (4), there were three patients with nasopharyngeal cancer.

The test system of data set [2] is hematological and solid tumor xenograft models. To be noted: range of hematological and solid tumor xenograft models; cited from earlier work.
The conditions of data set [3]: on exposure to aqueous solution or plasma; cited from earlier work.

For the compound `CC(C)C[C@H](NC(=O)[C@H](Cc1ccccc1)NC(=O)c1cnccn1)B(O)O` [bortezomib, N-2-pyrazinecarbonyl-L-phenylalanine-L-leucineboronic acid], in data set [1], the activity in patients entry was “confirming the activity”.

On to `CC(C)C[C@H](NC(=O)CNC(=O)c1cc(Cl)ccc1Cl)B1OC(=O)C(CC(=O)O)(CC(=O)O)O1` [formula (III-A), 2,2′-{2-[(1R)-1-({[(2,5-dichlorobenzoyl)amino]acetyl}amino)-3-methylbutyl]-5-oxo-1,3,2-dioxaborolane-4,4-diyl}diacetic acid], for which the clinical response entry in the data set with nasopharyngeal cancer (Patient 1, metastatic nasopharyngeal cancer of a squamous cell type, tumor NFκB p65 H-score 300) is “durable partial response”; in the data set on nasopharyngeal cancer (Patient 2, nasopharyngeal cancer, tumor NFκB p65 H-score 200), “disease progressed within 4 cycles”; in the data set on nasopharyngeal cancer (Patient 3, nasopharyngeal cancer, tumor NFκB p65 H-score 160), “progressive disease”. Further, the Responder/Non-responder result in the data set with nasopharyngeal cancer (Patient 1, H-score 300) is given as “Responder”; in the data set with nasopharyngeal cancer (Patient 2, H-score 200) it was “Non-responder”; in the data set with nasopharyngeal cancer (Patient 3, H-score 160), “Non-responder”. In addition, in data set [2], the anti-tumor activity result was “demonstrated anti-tumor activity”. Also, the “hydrolysis to the active form MLN2238” value in data set [3] is recorded as “rapidly hydrolyzes”.
